Measurements: ChEMBL document CHEMBL5385901, “Drug repurposing of propafenone to discover novel anti-tumor agents by impairing homologous recombination to delay DNA damage recovery of rare disease conjunctival melanoma” (Eur J Med Chem, 2023)
Each block holds one compound with its values, some of them ahead of it. Active and inactive are the calls of the source. The calls are words filed in the database; no cut-off is given here.

Tests used:
[1] = system: CRMM-1; test: Inhibition of cell migration in human CRMM-1 cells assessed as migration rate at 0.3 uM measured after 72 hrs by wound healing assay (reference value: 70 %); type: functional; set-up: scale not given: the % may be the effect or the level left
[2] = Antiproliferative activity against human HL7702 cells assessed as cell growth inhibition incubated for 72 hrs by CCK8 assay; type: toxicity, cell-based; settings: HL7702 (L02) cells
[3] = Inhibition of homologous recombination in human CRMM-1 cells at 10 uM incubated for 12 hrs by real-time PCR analysis relative to control; type: functional
[4] = system: CRMM-1; test: Antiproliferative activity against human CRMM-1 cells assessed as cell growth inhibition incubated for 72 hrs by CCK8 assay; type: functional, cell-based; settings: CRMM-1, 72 h
[5] = system: CRMM-1; test: Induction of apoptosis in human CRMM-1 cells at 3 uM measured after 48 hrs by DAPI/Annexin-V-PE staining based flow cytometry relative to control; type: functional
[6] = target: T1, Double-strand break repair protein MRE11 (Homo sapiens, UniProt P49959); test: Binding affinity to his-tagged recombinant human MRE11 assessed as dissociation constant by MST assay
T1 sequence (P49959 whole entry): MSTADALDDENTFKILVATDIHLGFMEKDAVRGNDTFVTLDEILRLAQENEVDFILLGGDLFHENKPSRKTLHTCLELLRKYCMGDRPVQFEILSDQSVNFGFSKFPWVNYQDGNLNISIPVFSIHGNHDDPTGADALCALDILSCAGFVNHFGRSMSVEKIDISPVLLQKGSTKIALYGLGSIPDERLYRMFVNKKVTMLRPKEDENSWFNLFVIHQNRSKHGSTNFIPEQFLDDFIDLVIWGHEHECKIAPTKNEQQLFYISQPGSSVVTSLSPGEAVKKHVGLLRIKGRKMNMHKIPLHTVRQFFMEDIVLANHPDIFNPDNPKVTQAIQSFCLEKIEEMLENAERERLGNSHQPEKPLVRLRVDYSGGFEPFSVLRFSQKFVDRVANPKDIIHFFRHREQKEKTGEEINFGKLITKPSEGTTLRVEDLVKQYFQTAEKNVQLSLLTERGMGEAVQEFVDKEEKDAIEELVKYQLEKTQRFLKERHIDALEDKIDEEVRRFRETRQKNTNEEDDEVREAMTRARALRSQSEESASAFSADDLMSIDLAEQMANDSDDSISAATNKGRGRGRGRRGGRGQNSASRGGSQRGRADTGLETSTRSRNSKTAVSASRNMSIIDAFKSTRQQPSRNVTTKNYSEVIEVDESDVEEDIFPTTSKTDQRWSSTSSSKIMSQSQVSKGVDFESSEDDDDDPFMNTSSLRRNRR

[7] = Antiproliferative activity against human CM2005.1 cells assessed as cell growth inhibition incubated for 72 hrs by CCK8 assay; type: functional, cell-based; settings: CM2005.1, 72 h
[8] = system: CRMM-2; test: Antiproliferative activity against human CRMM-2 cells assessed as cell growth inhibition incubated for 72 hrs by CCK8 assay; type: functional, cell-based; settings: CRMM-2, 72 h
[9] = Antiproliferative activity against human CM-AS16 cells assessed as cell growth inhibition incubated for 72 hrs by CCK8 assay; type: functional, cell-based; settings: CM-AS16, 72 h
[10] = Antiproliferative activity against human PIG1 cells assessed as cell growth inhibition incubated for 72 hrs by CCK8 assay; type: toxicity, cell-based
[11] = system: CRMM-1; test: Induction of DNA double strand breaks in human CRMM-1 cells assessed as gamma-H2AX accumulation at 1 uM measured after 24 hrs immunofluorescence based confocal microscopy; type: functional, cell-based
[12] = system: CRMM-1; test: Induction of apoptosis in human CRMM-1 cells at 0.1 uM measured after 48 hrs by DAPI/Annexin-V-PE staining based flow cytometry; type: functional, cell-based
[13] = system: CRMM-2; test: Induction of DNA damage in human CRMM-2 cells assessed as decrease in […] level upto 10 uM measured after 48 hrs by immunoblot analysis; type: functional, cell-based
[14] = system: CRMM-1; test: Induction of DNA double strand breaks in human CRMM-1 cells assessed as gamma-H2AX accumulation upto 10 uM by immunoblot analysis; type: functional, cell-based
[15] = system: CRMM-2; test: Induction of DNA damage in human CRMM-2 cells assessed as decrease in NBS1 level measured after 48 hrs by immunoblot analysis; type: functional, cell-based; settings: dose <= 10.0 µM
[16] = system: CRMM-1; test: Induction of DNA damage in human CRMM-1 cells assessed as increase in p53 level upto 10 uM by immunoblot analysis; type: functional, cell-based
[17] = system: CRMM-2; test: Induction of DNA damage in human CRMM-2 cells assessed as decrease in RAD50 level measured after 48 hrs by immunoblot analysis; type: functional, cell-based; settings: dose <= 10.0 µM
[18] = system: CRMM-1; test: Induction of apoptosis in human CRMM-1 cells at 0.3 to 3 uM measured after 48 hrs by DAPI/Annexin-V-PE staining based flow cytometry; type: functional, cell-based; settings: dose 0.3-3 µM
[19] = system: CRMM-2; test: Induction of DNA double strand breaks in human CRMM-2 cells assessed as gamma-H2AX accumulation at 1 uM measured after 24 hrs immunofluorescence based confocal microscopy; type: functional, cell-based
[20] = system: CRMM-1; test: Induction of DNA damage in human CRMM-1 cells assessed as decrease in MRE11 level measured after 48 hrs by immunoblot analysis; type: functional, cell-based; settings: dose <= 10.0 µM
[21] = system: CRMM-2; test: Induction of DNA damage in human CRMM-2 cells assessed as increase in p53 level upto 10 uM by immunoblot analysis; type: functional, cell-based
[22] = system: CRMM-1; test: Induction of DNA damage in human CRMM-1 cells assessed as decrease in […] level upto 10 uM measured after 48 hrs by immunoblot analysis; type: functional, cell-based
[23] = system: CRMM-2; test: Induction of DNA damage in human CRMM-2 cells assessed as decrease in RAD51 level upto 10 uM measured after 48 hrs by immunoblot analysis; type: functional, cell-based
[24] = target: T2, Double-strand break repair protein MRE11 (Homo sapiens) (UniProt P49959); test: Inhibition of his-tagged human MRE11 endonuclease activity using phage X174 circular ssDNA as substrate at 10 to 300 uM incubated for 30 mins by chemiluminescence based analysis; settings: dose 10-300 µM
T2 sequence (whole entry): T1 sequence (P49959 whole entry)

[25] = system: CRMM-1; test: Induction of DNA damage in human CRMM-1 cells assessed as decrease in NBS1 level measured after 48 hrs by immunoblot analysis; type: functional, cell-based; settings: dose <= 10.0 µM
[26] = system: CRMM-2; test: Induction of DNA damage in human CRMM-2 cells assessed as decrease in MRE11 level measured after 48 hrs by immunoblot analysis; type: functional, cell-based; settings: dose <= 10.0 µM
[27] = system: CRMM-2; test: Induction of DNA double strand breaks in human CRMM-2 cells assessed as gamma-H2AX accumulation upto 10 uM by immunoblot analysis; type: functional, cell-based
[28] = system: CRMM-1; test: Induction of DNA damage in human CRMM-1 cells assessed as decrease in RAD51 level upto 10 uM measured after 48 hrs by immunoblot analysis; type: functional, cell-based
[29] = system: CRMM-1; test: Induction of DNA damage in human CRMM-1 cells assessed as decrease in RAD50 level measured after 48 hrs by immunoblot analysis; type: functional, cell-based; settings: dose <= 10.0 µM
[30] = Toxicity in immunodeficient NCG mouse xenografted with human CRMM-1 cells assessed as change in serum urea level at 10 to 20 mg/kg, ip for 28 days administered five times per week; type: organism-based; settings: in vivo, 672 h, dose 10-20 mg/kg, time 28 day
[31] = system: CRMM-1; test: Antitumor activity against human CRMM-1 cells xenografted in immunodeficient NCG mouse assessed as tumor growth suppression at 10 mg/kg, ip for 28 days administered five times per week relative to control; type: functional; settings: time 28 day
[32] = system: CRMM-1; test: Antitumor activity against human CRMM-1 cells xenografted in immunodeficient NCG mouse assessed as tumor growth suppression at 20 mg/kg, ip for 28 days administered five times per week relative to control; type: functional; settings: time 28 day
[33] = Toxicity in immunodeficient NCG mouse xenografted with human CRMM-1 cells assessed as change in serum CREA level at 10 to 20 mg/kg, ip for 28 days administered five times per week; type: organism-based; settings: in vivo, 672 h, dose 10-20 mg/kg, time 28 day
[34] = Toxicity in immunodeficient NCG mouse xenografted with human CRMM-1 cells assessed as pathomorphological change in kidney at 10 to 20 mg/kg, ip for 28 days administered five times per week by H and E staining based analysis; type: organism-based; settings: in vivo, 672 h, dose 10-20 mg/kg, time 28 day
[35] = system: CRMM-1; test: Antitumor activity against human CRMM-1 cells xenografted in immunodeficient NCG mouse assessed as mean tumor volume at 20 mg/kg, ip for 28 days administered five times per week (reference value: 540 mm3); type: functional; settings: time 28 day
[36] = Toxicity in immunodeficient NCG mouse xenografted with human CRMM-1 cells assessed as change in serum AST level at 10 to 20 mg/kg, ip for 28 days administered five times per week; type: organism-based; settings: in vivo, 672 h, dose 10-20 mg/kg, time 28 day
[37] = Toxicity in immunodeficient NCG mouse xenografted with human CRMM-1 cells assessed as body weight loss at 10 to 20 mg/kg, ip for 28 days administered five times per week; type: organism-based; settings: in vivo, 672 h, dose 10-20 mg/kg, time 28 day
[38] = Toxicity in immunodeficient NCG mouse xenografted with human CRMM-1 cells assessed as pathomorphological change in liver at 10 to 20 mg/kg, ip for 28 days administered five times per week by H and E staining based analysis; type: organism-based; settings: in vivo, 672 h, dose 10-20 mg/kg, time 28 day
[39] = Toxicity in immunodeficient NCG mouse xenografted with human CRMM-1 cells assessed as change in serum ALT level at 10 to 20 mg/kg, ip for 28 days administered five times per week; type: organism-based; settings: in vivo, 672 h, dose 10-20 mg/kg, time 28 day
[40] = system: CRMM-1; test: Antitumor activity against human CRMM-1 cells xenografted in immunodeficient NCG mouse assessed as mean tumor volume at 10 mg/kg, ip for 28 days administered five times per week (reference value: 540 mm3); type: functional; settings: time 28 day
[41] = system: CRMM-1; test: Inhibition of homologous recombination in human CRMM-1 cells at 10 uM incubated for 12 hrs by real-time PCR analysis; type: functional, cell-based

- Kd [6]: 4.3 µM
SMILES: O=C(CCCc1ccccc1)c1c(OCCCN2CCNCC2)ccc2ccccc12 [listing 1 of 2 here]
- Activity [1]: 45%
- IC50 at 72 h [2]: 25.6 µM
- inhibition at 10 µM [3]: 89.5%
- IC50 [4]: 1300 nM
- Activity [5]: 80%
- IC50 [7]: 1000 nM
- IC50 [8]: 700 nM
- IC50 [9]: 2.9 µM
- IC50 at 72 h [10]: 32.9 µM

- inhibition [24]: Active
SMILES: O=C(CCCc1ccccc1)c1c(OCCCN2CCNCC2)ccc2ccccc12 [listing 2 of 2 here]
- Activity [11]: Active
- Activity [12]: inactive
- Activity [13]: Active
- Activity [14]: Active
- Activity [15]: Dose-Dependent Effect
- Activity [16]: Active
- Activity [17]: Dose-Dependent Effect
- Activity [18]: Active
- Activity [19]: Active
- Activity [20]: Dose-Dependent Effect
- Activity [21]: Active
- Activity [22]: Active
- Activity [23]: Active
- Activity [25]: Dose-Dependent Effect
- Activity [26]: Dose-Dependent Effect
- Activity [27]: Active
- Activity [28]: Active
- Activity [29]: Dose-Dependent Effect

SMILES: Cl.Cl.O=C(CCCc1ccccc1)c1c(OCCCN2CCNCC2)ccc2ccccc12
- Activity [30]: Non-Toxic
- Activity [31]: 21%
- Activity [32]: 33%
- Activity [33]: Non-Toxic
- Activity [34]: Non-Toxic
- Activity [35]: 340 mm3
- Activity [36]: Non-Toxic
- Activity [37]: Non-Toxic
- Activity [38]: Non-Toxic
- Activity [39]: Non-Toxic
- Activity [40]: 390 mm3

SMILES: CCCCCNCCCOc1ccccc1C(=O)CCCc1ccccc1
- IC50 at 72 h [2]: 2.4 µM
- IC50 [4]: 2300 nM
- IC50 [7]: 3800 nM
- IC50 [8]: 1300 nM
- IC50 [9]: 5.5 µM
- IC50 at 72 h [10]: 1.9 µM
- inhibition [41]: inactive
